Data on 41 substances can be found in US11214803B2, “Modulators of YAP1 expression” (Ionis Pharmaceuticals, Inc., priority 2019, dated 2022).

The test system of this series is Yap1 mRNA. The experiment in a line: Antisense inhibition of human Yap1 in SNU-449 cells by modified oligonucleotides, single dose (Example 5, RTS36584). The format is cell-based. As to the method: Modified oligonucleotides with additional chemistry modifications were designed to target a Yap1 nucleic acid and were tested for their effect on Yap1 mRNA level in SNU-449 cells. The modified oligonucleotides were tested in a series of experiments that had similar culture conditions. Cultured SNU-449 cells at a density of 10,000 cells per well were treated using free uptake with 2,000 nM of modified oligonucleotide. After a treatment period of approximately 48 hours, RNA was isolated from the cells and Yap1 mRNA levels were measured by quantitative real-time RTPCR. Human primer probe set RTS36584 was used to measure mRNA levels. Yap1 mRNA levels were normalized to total RNA content, as measured by RIBOGREEN®. Results are presented in the tables below as percent control of the amount of Yap1 mRNA relative to untreated control cells (% UTC). The modified oligonucleotides with percent control values marked with an asterisk (*) target the amplicon region of the primer probe set. Additional assays may be used to measure the potency and efficacy of the modified oligonucleotides targeting the amplicon region.
Several different chemistry modifications were tested, which are specified in the Chemistry Notation column of the tables below, wherein the notation “d” refers to a 2′-deoxyribose sugar, the notation “s” refers to a phosphorothioate (P═S) internucleoside linkage, the notation “k” refers to a cEt modified sugar, the notation “y” refers to a 2′-O-methyl ribose sugar, the notation “e” refers to a MOE modified sugar, and the notation “^mC” refers to a 5-methylcytosine.
“Start site” indicates the 5′-most nucleoside to which the gapmer is targeted in the human gene sequence. “Stop site” indicates the 3′-most nucleoside to which the gapmer is targeted human gene sequence. […] Activity of the modified oligonucleotide may be defined in a different experiment.

Setting [1] is: Table 41, SNU-449 cells, 10,000 cells per well, free uptake, 2,000 nM modified oligonucleotide, approximately 48 hours, RTS36584, normalized to RIBOGREEN, Yap1 mRNA relative to untreated control cells.
[2] abbreviates: Table 51, Yap1 mRNA remaining as percent of untreated control (UT), SNU-449 cells, single dose.
Setting [3] is: Table 40 (separate experiment), SNU-449 cells, 10,000 cells per well, free uptake, 2,000 nM oligonucleotide, approx. 48 hours, RTS36584, normalized to RIBOGREEN, Yap1 mRNA relative to untreated control.
Setting [4] is: Table 44 experiment, SNU-449 cells, 10,000 cells per well, free uptake, 2,000 nM, approximately 48 hours, RTS36584, Yap1 mRNA normalized to RIBOGREEN, relative to untreated control cells.
The mark [5] stands for this setting: Table 45, Yap1 mRNA as percent of untreated control, SNU-449 cells, single dose.
Where [6] appears, read: Table 42 (separate experiment), SNU-449 cells, 10,000 cells per well, free uptake, 2,000 nM modified oligonucleotide, approximately 48 hours, RTS36584, normalized to RIBOGREEN, Yap1 mRNA relative to untreated control cells.
The mark [7] stands for this setting: Table 39, SNU-449 cells, 10,000 cells per well, free uptake, 2,000 nM oligonucleotide, approx. 48 hours, RTS36584, normalized to RIBOGREEN, Yap1 mRNA relative to untreated control.
Where [8] appears, read: Table 50, Yap1 mRNA remaining as percent of untreated control (UT), SNU-449 cells, single dose.
Where [9] appears, read: Table 46, Yap1 mRNA as percent of untreated control, SNU-449 cells, single dose.
Setting [10] is: Table 43 experiment, SNU-449 cells, 10,000 cells per well, free uptake, 2,000 nM, approximately 48 hours, RTS36584, Yap1 mRNA normalized to RIBOGREEN, relative to untreated control cells.
Setting [11] is: Table 52, Yap1 mRNA, modified oligonucleotides targeting SEQ ID NO: 1 and 2.
[12] abbreviates: Table 49, Yap1 mRNA level relative to untreated control, modified oligonucleotides targeting SEQ ID NO.: 1 and 2.

Strand notation (5' to 3'): a small letter for the sugar, then the base; units joined by * are phosphorothioate-linked, units joined directly phosphodiester-linked; [ ] holds rarer units or linkages, { } end groups; capitals alone tell only the bases. e = 2'-O-(2-methoxyethyl) (MOE); k = constrained ethyl (cEt); [5mC] = 5-methylcytosine; d = 2'-deoxy (DNA); m = 2'-O-methyl

For “1198633 (kG*kG*dA*dA*dA*dT*dT*dG*dT*d[5mC]*dT*d[5mC]*kA*eT*kG*e[5mC]; antisense) [Compound 1198633]”, under setting [1], the “YAP1 (% UTC)” value worked out at 46 % UTC. On to “1197313 (kA*kG*kT*dG*mU*dA*dT*dG*dT*d[5mC]*dA*dG*dA*kA*kG*kA; antisense) [Compound 1197313]”, for which the “YAP1 (% UT)” value under setting [2] is listed as 8 % UT. As for “1198714 (kT*eG*kT*d[5mC]*dT*d[5mC]*dA*dT*dG*d[5mC]*d[5mC]*dT*eT*eA*kT*kA; antisense) [Compound 1198714]”, under setting [3], the “YAP1 (% UTC)” value is 20 % UTC.

Turning to “1198645 (kT*k[5mC]*dT*dA*dT*dA*dT*dT*dA*dG*dA*dG*kT*eA*kT*eG; antisense) [Compound 1198645]”, the “YAP1 (% UTC)” value under setting [1] is listed as 73 % UTC.

For the substance “1198506 (kA*kT*dA*dT*dG*dG*dT*dT*dT*dT*dG*eT*kG*eT*kG*eT; antisense) [Compound 1198506]”, under setting [4], the “YAP1 (% UTC)” value is given as 47 % UTC.

With “1198965 (k[5mC]*kT*dT*dT*dA*dA*dA*dG*dT*dG*dT*kA*dT*kG*dT*k[5mC]; antisense) [Compound 1198965]”, the “YAP1 (% UTC)” value under setting [5] is 95 % UTC.

“1198442 (kT*dA*dA*dA*dG*dT*dG*dT*dA*dT*dG*kT*e[5mC]*kA*eG*kA; antisense) [Compound 1198442]”: the “YAP1 (% UTC)” value under setting [3] came out at 44 % UTC. As for “1198650 (kA*kA*d[5mC]*dA*d[5mC]*dT*dG*dA*dG*dG*dT*dA*kT*eA*kA*e[5mC]) [Compound 1198650]”, the “YAP1 (% UTC)” value under setting [6] was 88 % UTC. As to “1198382 (kT*dT*dA*dG*dA*dG*dT*dA*dT*dG*dT*kG*eG*k[5mC]*eA*kA; antisense) [Compound 1198382]”, the “YAP1 (% UTC)” value under setting [7] was determined as 19 % UTC. Consider “1200795 (kT*kA*kG*dA*dG*mU*dA*dT*dG*dT*dG*dG*d[5mC]*kA*kA*kT; antisense) [Compound 1200795]”, for which the “YAP1 (% UT)” value under setting [2] was found to be 30 % UT. In the case of “1197233 (antisense kT*kA*kG*dA*mG*dT*dA*dT*dG*dT*dG*dG*d[5mC]*kA*kA*kT) [Compound 1197233]”, under setting [8], the “YAP1 (% UT)” value was determined as 36 % UT. As to “1198809 (antisense kG*kG*dA*dA*dA*dT*dT*dG*dT*d[5mC]*dT*k[5mC]*eA*kT*eG*k[5mC]) [Compound 1198809]”, the “YAP1 (% UT)” value under setting [9] came to 27 % UT. Still for that read-out and setting: as for “1198837 (kT*kT*dG*dG*dA*dA*dG*dA*dT*d[5mC]*dT*kG*eA*kA*eA*k[5mC]; antisense) [Compound 1198837]”, the figure is 66 % UT. On to “119825 4 (kA*kA*d[5mC]*dT*d[5mC]*dT*dT*dA*dT*dA*dT*eG*eG*eT*kT*kT; antisense)”, for which the “YAP1 (% UTC)” value under setting [10] is reported as 95 % UTC.

With “1197209 (antisense kT*kG*kT*dA*dA*dT*dA*dT*dT*dG*d[5mC]*dA*dA*kT*k[5mC]*kT) [Compound 1197209]”, under “Yap1 mRNA, percent of untreated control, modified oligonucleotides targeting SEQ ID NO: 1 and 2, Table 47”, the “YAP1 (% UT)” value was 33 % UT. On to “1200791 (kA*kT*kG*dG*dA*mA*dA*dT*dT*dG*dT*d[5mC]*dT*k[5mC]*kA*kT; antisense) [Compound 1200791]”, for which, under setting [11], the “YAP1 (% UT)” value is 46 % UT. Turning to “1198930 (kA*kT*dA*dG*dT*dG*d[5mC]*dT*dT*dT*dG*kG*dA*kA*dG*kA; antisense) [Compound 1198930]”, the “YAP1 (% UTC)” value under setting [5] came out at 68 % UTC.

With “1197282 (kA*kA*kA*dT*mU*dG*dT*d[5mC]*dT*d[5mC]*dA*dT*dG*k[5mC]*k[5mC]*kT) [Compound 1197282]”, the “YAP1 (% UT)” value under setting [8] is 40 % UT. Take “1198390 (kA*dG*dG*dT*dA*dT*dA*dA*d[5mC]*dT*dG*kG*eG*k[5mC]*eA*kA; antisense) [Compound 1198390]”: the “YAP1 (% UTC)” value under setting [7] amounted to 37 % UTC. Turning to “1198487 (antisense kT*kT*dA*dA*dG*d[5mC]*dA*d[5mC]*dT*dT*dT*eT*kA*e[5mC]*kA*eT) [Compound 1198487]”, the “YAP1 (% UTC)” value under setting [4] came to 62 % UTC. For the substance “1198593 (antisense kT*kT*kA*dT*dA*dT*dG*dG*dT*dT*dT*dT*kG*kT*kG*eT) [Compound 1198593]”, the “YAP1 (% UT)” value under setting [8] was determined as 45 % UT. For the substance “1200820 (kG*kG*kA*dA*dG*mA*dT*d[5mC]*dT*dG*dA*dA*dA*k[5mC]*kT*k[5mC]; antisense) [Compound 1200820]”, under setting [11], the “YAP1 (% UT)” value was 24 % UT. Regarding “1198768 (kA*eT*kA*dT*dG*dG*dT*dT*dT*dT*dG*dT*eG*eT*kG*kT; antisense) [Compound 1198768]”, the “YAP1 (% UTC)” value under setting [1] amounted to 61 % UTC.

Turning to “1198746 (kG*e[5mC]*kA*d[5mC]*dT*dT*dT*dT*dA*d[5mC]*dA*dT*eT*eA*kG*kG; antisense) [Compound 1198746]”, the “YAP1 (% UTC)” value under setting [3] is given as 7 % UTC.

Regarding “1198461 (antisense kG*kG*dA*dA*dA*dT*dT*dG*dT*d[5mC]*dT*e[5mC]*kA*eT*kG*e[5mC]) [Compound 1198461]”, the “YAP1 (% UTC)” value under setting [10] is recorded as 24 % UTC. Turning to “1198393 (kT*dT*dA*d[5mC]*dA*dT*dT*dA*dG*dG*dA*kA*e[5mC]*kA*eA*kG; antisense) [Compound 1198393]”, the “YAP1 (% UTC)” value under setting [7] stood at 58 % UTC.

For “1198318 (kT*kT*kT*dG*dG*dA*dA*dG*dA*dT*d[5mC]*dT*kG*eA*kA*eA; antisense) [Compound 1198318]”, under “Table 48, Yap1 mRNA level relative to untreated control, modified oligonucleotides targeting SEQ ID NO.: 1 and 2”, the “YAP1 (% UT)” value is listed as 120 % UT.

Turning to “1198408 (kG*dT*dG*d[5mC]*dT*dT*dT*dG*dG*dA*dA*kG*eA*kT*e[5mC]*kT; antisense) [Compound 1198408]”, under setting [7], the “YAP1 (% UTC)” value came to 41 % UTC. For “1198856 (k[5mC]*kT*dT*dA*dT*dA*dT*dG*dG*dT*dT*kT*eT*kG*eT*kG; antisense) [Compound 1198856]”, under setting [9], the “YAP1 (% UT)” value was found to be 20 % UT. For the substance “1198467 (antisense kT*kA*dG*dA*dG*dT*dA*dT*dG*dT*dG*eG*k[5mC]*eA*kA*eT) [Compound 1198467]”, the “YAP1 (% UTC)” value under setting [10] was determined as 27 % UTC. With “1197238 (antisense kA*kG*kG*dT*mA*dT*dA*dA*d[5mC]*dT*dG*dG*dG*k[5mC]*kA*kA) [Compound 1197238]”, the “YAP1 (% UT)” value under setting [2] was 43 % UT. For “1198534 (kA*kG*dT*dA*dA*dG*dG*dT*dT*dT*d[5mC]*e[5mC]*k[5mC]*eA*kG*eA; antisense) [Compound 1198534]”, the “YAP1 (% UTC)” value under setting [4] was 30 % UTC. Regarding “1198958 (kT*kG*dT*dA*dT*dG*dT*d[5mC]*dA*dG*dA*kA*dG*kA*dG*kT; antisense) [Compound 1198958]”, the “YAP1 (% UTC)” value under setting [5] worked out at 12 % UTC. Consider “1198436 (kT*dA*dT*dG*dT*dA*dA*dT*dA*dT*dT*kG*e[5mC]*kA*eA*kT; antisense) [Compound 1198436]”, for which the “YAP1 (% UTC)” value under setting [7] is recorded as 69 % UTC. Turning to “1198357 (kT*kT*kA*dA*dA*dG*dT*dG*dT*dA*dT*dG*kT*e[5mC]*kA*eG; antisense) [Compound 1198357]”, the “YAP1 (% UT)” value under setting [12] is recorded as 21 % UT. For “1095566 (antisense CTGAGGTATAACTGGG; chemistry not fully specified) [Compound 1095566]”, under setting [12], the “YAP1 (% UT)” value is 47 % UT.

“1198647 (kG*kG*dT*dA*dT*dA*dA*d[5mC]*dT*dG*dG*dG*k[5mC]*eA*kA*eA) [Compound 1198647]”: the “YAP1 (% UTC)” value under setting [6] is 47 % UTC. Take “1198565 (antisense kT*kT*kA*d[5mC]*dA*dT*dT*dA*dG*dG*dA*dA*k[5mC]*kA*kA*eG) [Compound 1198565]”: the “YAP1 (% UT)” value under setting [12] is listed as 53 % UT. “1200801 (kT*k[5mC]*kT*dA*dT*mA*dT*dT*dA*dG*dA*dG*dT*kA*kT*kG; antisense) [Compound 1200801]”: the “YAP1 (% UT)” value under setting [2] amounted to 77 % UT. Regarding “1198713 (kT*kT*dA*dG*dA*d[5mC]*dT*dA*dA*dG*dT*dA*kA*eG*kG*eT; antisense) [Compound 1198713]”, the “YAP1 (% UTC)” value under setting [6] came to 62 % UTC. In the case of “1198896 (kT*kG*dG*dA*dA*dA*dT*dT*dG*dT*d[5mC]*kT*d[5mC]*kA*dT*kG; antisense) [Compound 1198896]”, the “YAP1 (% UTC)” value under setting [5] came to 59 % UTC.
